Laboratory results published in patent US20100273789A1, “AMINOACYL PRODRUGS” (BAYER SCHERING PHARMA AKTIENGESELLSCHAFT, priority 2007, published 2010).

Test: Determination of the solubility
Type: physicochemical
Details: in water and physiological media
Method: The test substance is suspended in water or dilute hydrochloric acid (pH 4). This suspension is shaken at room temperature for 24 h. After ultracentrifugation at 224 000 g for 30 min, the supernatant is diluted with DMSO and analyzed by HPLC. A two-point calibration plot of the test compound in DMSO is used for quantification.
Agilent 1100 with DAD (G1315A), quat. pump (G1311A), autosampler CTC HTS PAL, degasser (G1322A) and column thermostat (G1316A); column: Zorbax Extend-C18 3.5μ; temperature: 40° C.; mobile phase A: water+5 ml of perchloric acid/liter, mobile phase B: acetonitrile; flow rate: 0.7 ml/min; gradient: 0-0.5 min 98% A, 2% B; ramp 0.5-4.5 min 10% A, 90% B; 4.5-6 min 10% A, 90% B; ramp 6.5-6.7 min 98% A, 2% B; 6.7-7.5 min 98% A, 2% B.

SMILES: O=C(NC[C@H]1CN(c2ccc(N3CCOCC3=O)cc2F)C(=O)O1)c1ccc(Cl)s1 [compound (A), 5-Chloro-N-({(5S)-3-[2-fluoro-4-(3-oxomorpholin-4-yl)phenyl]-2-oxo-1,3-oxazolidin-5-yl}methyl)thiophene-2-carboxamide]
- solubility: limited solubility
